Reference: PubChem BioAssay AID179 (DTP/NCI, 2004)
Active and inactive are the calls of the source.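 Rule for the calls: active = compounds giving half or more protection of infected cells from virus-caused growth loss, again on retest; inactive = the rest.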

System: CEM cells HIV-1 protection, formazan growth assay
Assay: NCI AIDS Antiviral Assay
Conditions: for IC50: measured here: growth of uninfected CEM cells
Outline: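 Soluble formazan readout of cell growth; CEM cells ± HIV-1; 5 drug concs. ≥50% protection → retest; ≥50% again = moderately active; reproducible 100% = confirmed active.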

SMILES	EC50	IC50	outcome
Cn1c(=O)c(C(c2ccc([N+](=O)[O-])cc2)c2c(O)c3ccccc3n(C)c2=O)cc2ccccc21 (configuration not stated)	> 4.27 µM	> 4.27 µM	–
CC(C)NCC(O)c1ccc(OCc2ccccc2)c(OCc2ccccc2)c1-c1ccccc1 (configuration not stated)	> 200 µM	3.09 µM	–
C[N+](C)(C)CC1CCCC(C[N+](C)(C)C)C1=NO (configuration not stated)	–	–	inactive
O=C1/C(=C\c2cccc(Oc3ccccc3)c2)S(=O)(=O)C(c2ccccc2)N1c1ccc(Cl)cc1 (configuration not stated)	> 20 µM	–	–
CCC(N)Cc1c[nH]c2ccccc12 (configuration not stated)	> 200 µM	> 200 µM	–
CC(=O)OC1(C)C=C/C(=N\S(=O)(=O)c2ccc(C)cc2)c2ccccc21 (configuration not stated)	> 200 µM	9.33 µM	–
C=CCC12CC(C)OC1=Nc1ccccc1NC2=O (configuration not stated)	> 200 µM	> 200 µM	–
CCCCNC(C)(C)C(SSSC(c1cccs1)C(C)(C)NCCCC)c1cccs1 (configuration not stated)	> 200 µM	20 µM	–
OCCN1CCN2C=C(C3CCCC4N(CCO)CCN34)CCC21 (configuration not stated)	> 741 µM	33.9 µM	–
Cc1ccc(C(=O)CC2(O)C(=O)Nc3c(C)cc(Cl)cc32)cc1 (configuration not stated)	> 110 µM	> 110 µM	–
COc1ccccc1C=C1C(=O)OC(C)(C)OC1=O	–	–	inactive
CCOc1ccc(OCC(=O)O)c2c1CCCC2=O	–	–	inactive
CCCCCCCCCCCCCCCCOCC(COP(=O)([O-])OCC[n+]1ccc(N(C)C)cc1)OCC (configuration not stated)	> 200 µM	66.1 µM	–
COCC12CCC(OC)C34C5CC6(O)C(OC)C=C(C5C6OC(=O)c5ccccc5)C(C(OC)C13)C4N(C)C2 (configuration not stated)	–	–	inactive
COC(=O)c1cc(CN(C)C)c(O)c(CN(C)C)c1	> 200 µM	> 200 µM	–
CC(=O)n1c2c(c(=O)n1-c1ccccc1)S(=O)CCC2 (configuration not stated)	> 123 µM	89.1 µM	–
O=C/C(=C1/C=Cc2cc([N+](=O)[O-])ccc2S1)c1ccccc1	> 200 µM	> 200 µM	–
CCOC(=O)C1(c2ccccc2)CCN(Cc2ccccc2)CC1	> 100 µM	52.5 µM	–
O=C(NC(=O)c1c(F)cccc1F)Nc1ccc(Br)cn1	> 200 µM	> 200 µM	–
Cc1cc(=O)c2c(ccc3c(=O)cc(C)[nH]c32)[nH]1	> 257 µM	240 µM	–
N=c1c2ccccc2c2ccccc2n1O	> 200 µM	> 100 µM	–
O=C(OCC12CC3CC(CC(C3)C1)C2)c1ccc(NCc2cc(O)ccc2O)cc1	> 2 µM	1.78 µM	–

SMILES	EC50	IC50	outcome
COC(=O)NC[C@@H]1OCc2cc3c(cc2[C@]12CC=CCC2)OCO3	> 107 µM	6.92 µM	–
O=S(=O)(CC#CCO)c1cccc2ccccc12	–	–	inactive
COc1ccc2cc1Oc1ccc(cc1)C[C@@H]1c3cc(c(OC)cc3CCN1C)Oc1c(OC)c(OC)cc3c1[C@@H](C2)N(C)CC3	–	–	inactive
Cc1ccc(S(=O)(=O)CC2CCCn3c2c(C#N)c2ccccc23)cc1 (configuration not stated)	> 200 µM	> 200 µM	–
COCC(=O)C1CC[C@@H]2[C@H](CC[C@]3(C)[C@@H](OC(C)=O)CC[C@@H]23)[C@H]1C(=O)OC (some centres not stated)	> 50.1 µM	> 50.1 µM	–
COc1ccc(N=Nc2c(-c3c(OC)cc4occc4c3OC)[nH]c(=O)c(C#N)c2C)cc1	> 200 µM	120 µM	–
CC(C)OP(=O)(OC(C)C)/C(Cl)=N/Nc1ccc([N+](=O)[O-])cc1	> 70.8 µM	> 70.8 µM	–
Cc1cccc(C(C)(C)C)c1NC(=O)CC1C(=O)Nc2ccccc2S1=O (configuration not stated)	–	–	inactive
CCOC(=O)c1cc2c3c(c(O)c(OC)c2s1)N(C(=O)c1cc2c4c(c(OC)c(OC)c2s1)N(C(=O)OC(C)(C)C(Cl)(Cl)Cl)CC4)CC3	–	–	inactive
CCOC(=O)c1ccc(C(=O)C(C(C)=O)C(=O)OC(C)(C)C)n1C (configuration not stated)	43.7 µM	74.1 µM	–
Cn1c(COC(=O)NC2CCCCC2)c(COC(=O)NC2CCCCC2)c2ccc3cc(C=O)ccc3c21	> 174 µM	2.19 µM	–
CC(=O)N1c2ccccc2N(C(C)=O)C1c1ccc(C2N(C(C)=O)c3ccccc3N2C(C)=O)[nH]1	–	–	inactive
CCCC(=O)CC(C)C(=O)C(=O)NC12CC3CC(CC(C3)C1)C2 (configuration not stated)	> 295 µM	> 295 µM	–
COC[C@@H](N=CN1CCc2cc(OC)c(OC)cc2[C@@H]1C)C(C)(C)C	> 513 µM	490 µM	–
Cn1c(=O)n2n(c1=O)C1C3C4C5C3C13COCC53C42 (configuration not stated)	–	–	inactive
CNS(=O)(=O)c1c(NC=O)ncn1C	> 1150 µM	> 1150 µM	–
O=C1C=C(Nc2ccccc2C(=O)CC(=O)C(=O)Nc2cccc(C(F)(F)F)c2)c2ccccc2C1=O	> 37.2 µM	6.61 µM	–
O=C(O)CN(c1ccc(Cl)cc1)S(=O)(=O)c1ccccc1	–	–	inactive
N#Cc1c(-c2cccc3ccccc23)c2c([nH]c1=S)CCCC2	> 79.4 µM	34.7 µM	–
CCC/[N+]([O-])=C/c1ccc([N+](=O)[O-])o1	–	–	inactive
CC1(C)OCC2OC3OC(C)(C)OC3C(OS(C)(=O)=O)C2O1 (configuration not stated)	> 200 µM	> 200 µM	–
CN=C(n1ccnc1)n1ccnc1	> 200 µM	> 200 µM	–

SMILES	EC50	IC50	outcome
O=C1c2ccccc2C(=O)N1/N=C\c1ccc(O)cc1	> 135 µM	> 135 µM	–
O=C(C=Nc1ccccc1C(=O)[O-])c1ccco1.O=C(C=Nc1ccccc1C(=O)[O-])c1ccco1.[Cu+2]	> 1.91 µM	> 1.91 µM	–
COc1ccc(OC)c2c3c([nH]c12)C(=O)Nc1nc(N)nc(N)c1C3	> 20 µM	1 µM	–
CC(C)c1ccc(/C=C2\CSCC3=C2NC(=S)NC3c2ccc(C(C)C)cc2)cc1 (configuration not stated)	> 200 µM	42.7 µM	–
CCc1cccc(C(C)C)c1N1C(=O)C(=O)C(c2nc3ccccc3s2)C(=O)C1=O	> 17.4 µM	> 17.4 µM	–
O=C(NCCc1c[nH]c2ccccc12)C1CC1	> 200 µM	110 µM	–
O=S1(=O)CCCS(=O)(=O)C(c2ccccc2)=C1c1ccccc1	> 145 µM	50.1 µM	–
OC1CCCC2CCC[N-]C12.OC1CCCC2CCC[N-]C12.[Mn+2] (configuration not stated)	–	–	inactive
CCOC(=O)/C(=C\c1cccc(OC)c1)[Se]c1ccccc1	> 14.5 µM	7.59 µM	–
Cc1cccc(C(C)(C)C)c1NC(=O)C(C#N)C1=C(Cl)C(=O)c2ccccc2C1=O (configuration not stated)	> 107 µM	22.9 µM	–
Cc1nc(-c2ccc(Cl)cc2)cn2c1nc1ccccc12	61.7 µM	191 µM	–
CC(=O)N/C(=C\c1ccc(/C=C(\NC(C)=O)C2=NC3C(=O)c4ccccc4C(=O)C3N2)cc1)C1=NC2C(=O)c3ccccc3C(=O)C2N1 (configuration not stated)	–	–	inactive
O=C1C(=Cc2ccccc2O)N=C(c2ccccc2)N1n1c(-c2ccccc2)nc2ccccc2c1=O	> 200 µM	10.2 µM	–
CCCC1OP(=O)(N2CC(C)N(P3(=O)OCC(CC)C(CCC)O3)CC2C)OCC1CC (configuration not stated)	> 200 µM	> 200 µM	–
Cc1[nH]c2ncn(N)c(=N)c2c1Cc1ccccc1	> 200 µM	> 200 µM	–
CCOC(=O)Nc1ccc2c(c1)c(CCCCCCc1nc3ccccc3c3ccc(NC(=O)OCC)cc13)nc1ccccc12	> 100 µM	21.4 µM	–
COc1ccc(N2C(=O)C3c4[nH]c5ccccc5c4C4CCC(c5ccccc5)CC4C3C2=O)cc1 (configuration not stated)	> 100 µM	> 100 µM	–
C/C=C(/C1CC(=O)N2CCc3c([nH]c4ccccc34)C2C1)[Si](C)(C)C (configuration not stated)	> 10.7 µM	> 10.7 µM	–
CC1(C)CCCCCC(C)(CCCCCCCCCCCO)C1=O (configuration not stated)	> 200 µM	30.2 µM	–
Cc1ccc(NCCCN2CCN(CCCNc3ccc(C)c4sc5ccccc5c(=O)c34)CC2)c2c(=O)c3ccccc3sc12	> 100 µM	> 100 µM	–
O=C(/C(=C/c1cccc([N+](=O)[O-])c1)c1ccccc1)c1ccccc1	> 6.03 µM	4.07 µM	–
O=S(=O)(O)C(O)CC(O)S(=O)(=O)O (configuration not stated)	> 200 µM	102 µM	–

SMILES	EC50	IC50	outcome
O=c1c2c(sc3ccccc13)NCN(CCc1ccccc1)C2	17.4 µM	40.7 µM	–
CN1CCC2(CC1)SC[C@H]1C(=O)N(c3ccc(Cl)cc3)C(=O)N12	> 200 µM	120 µM	–
Cc1cc2c(C(C)C)c(O)c(O)c(C=NCCO)c2c(O)c1-c1c(C)cc2c(C(C)C)c(O)c(O)c(C=NCCO)c2c1O	–	–	inactive
CCC[CH2][Sn]([CH2]CCC)([O]C(=O)c1cccc(F)c1)[O]C(=O)c1cccc(F)c1	> 10.2 µM	6.61 µM	–
O=S(=O)(O)C(Br)(Br)Br	> 200 µM	> 200 µM	–
O=c1[nH]nc(-c2ccccc2)n1/N=C/c1cccc([N+](=O)[O-])c1	> 200 µM	24.5 µM	–
COC(=O)CCC(=O)CC(=O)C(=O)Nc1ccc(F)cc1	> 45.7 µM	> 45.7 µM	–
CCOC(=O)/C(=C\c1cccc(Br)c1)P(=O)(OCC)OCC	> 91.2 µM	6.03 µM	–
CCOC(=O)c1ccc(N(CC(=O)O)S(=O)(=O)c2ccc(C)cc2)s1	> 20 µM	> 20 µM	–
Cc1cc2c(cc1Cl)SSc1cc(Cl)c(C)cc1S(=O)(=O)Nc1nc(N)nn1C(O)n1nc(N)nc1NS2(=O)=O	89.1 µM	> 100 µM	–
C=C(Br)CC12CC3(CCC1c1ccc(OC)cc1C2=O)OCCO3 (configuration not stated)	> 110 µM	> 110 µM	–
CC(=O)OC1COC(Nn2c(=O)[nH]c3ccccc3c2=O)C(OC(C)=O)C1OC(C)=O (configuration not stated)	> 200 µM	> 200 µM	–
O=C(CCN1CCCCC1)c1cc2cc([N+](=O)[O-])ccc2oc1=O	> 219 µM	112 µM	–
CN(C(=O)C1=CCCCCC1)c1ccccc1I	> 200 µM	38.9 µM	–
COc1nc2c(c(=O)n1C)N=C(c1ccc(Cl)cc1)CC(c1ccccc1)N2 (configuration not stated)	> 200 µM	30.9 µM	–
CN1CN(c2ccccc2)C2(CCN(CCCCCCF)CC2)C1=O	> 200 µM	107 µM	–
O=C1C=C2CCN(C(=O)c3ccccc3)CC2O1 (configuration not stated)	> 200 µM	> 200 µM	–
CN(C)CCNc1ccc(CO)c2sc3ccc(O)cc3c(=O)c12	> 2 µM	0.105 µM	–
CN1CCCn2c(nc3ccccc3c2=O)C1	> 1100 µM	> 1100 µM	–
CC(=O)NNc1nc(C)c(C(=O)NNC(=O)C(=O)Nc2c(C)cccc2C(C)(C)C)s1	> 151 µM	26.3 µM	–
O=C(O/N=C1/CCCC/C1=C\c1ccccc1)c1ccc(Cl)cc1	–	–	inactive
